Measured values from ChEMBL document CHEMBL1137274, “Discovery and synthesis of tetrahydroindolone-derived carbamates as Kv1.5 blockers” (Bioorg Med Chem Lett, 2006).

Legend:
[1] = molecular target: T1, Potassium voltage-gated channel subfamily A member 5 (Homo sapiens, UniProt P22460); test: Inhibition of Kv1.5 expressed in LTK- cells by whole cell patch clamp assay at 1uM; format: functional, cell-based
[2] = molecular target: Voltage-gated inwardly rectifying potassium channel KCNH2 (Homo sapiens, UniProt Q12809); test: Inhibition of hERG expressed in HEK cells by whole cell patch clamp assay; format: toxicity, cell-based, HEK293
Homo sapiens [3] = species on record: Homo sapiens; test: Selectivity for Kv1.5 compared to hERG; format: functional
Homo sapiens [4] = species on record: Homo sapiens; test: Selectivity for Kv1.5 compared to L-type calcium channel; format: functional
[5] = molecular target: Voltage-gated L-type calcium channel (Homo sapiens, UniProt Q13936+Q13698+Q01668+O60840); test: Inhibition of L-type calcium channel by FLIPR assay; format: functional
[6] = molecular target: T1, Potassium voltage-gated channel subfamily A member 5; test: Inhibition of Kv1.5 expressed in LTK- cells by whole cell patch clamp assay; format: functional, cell-based

T1 sequence (P22460 whole entry): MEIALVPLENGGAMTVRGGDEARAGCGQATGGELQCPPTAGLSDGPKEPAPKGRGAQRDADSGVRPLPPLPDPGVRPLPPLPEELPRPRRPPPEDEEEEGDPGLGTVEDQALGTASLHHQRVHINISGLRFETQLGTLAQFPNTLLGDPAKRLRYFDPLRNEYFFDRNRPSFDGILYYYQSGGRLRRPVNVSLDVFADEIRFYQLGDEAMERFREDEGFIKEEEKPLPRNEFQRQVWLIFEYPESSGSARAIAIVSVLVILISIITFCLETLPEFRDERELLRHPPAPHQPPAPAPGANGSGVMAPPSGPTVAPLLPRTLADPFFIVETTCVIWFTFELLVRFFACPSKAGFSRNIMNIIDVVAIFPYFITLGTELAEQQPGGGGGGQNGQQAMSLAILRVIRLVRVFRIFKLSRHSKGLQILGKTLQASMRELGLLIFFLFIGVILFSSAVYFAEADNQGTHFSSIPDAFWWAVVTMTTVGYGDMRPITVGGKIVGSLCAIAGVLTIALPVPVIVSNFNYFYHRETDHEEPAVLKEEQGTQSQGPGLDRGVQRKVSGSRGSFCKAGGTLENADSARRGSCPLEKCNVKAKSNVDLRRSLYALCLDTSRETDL
Voltage-gated inwardly rectifying potassium channel KCNH2, sequence (Q12809 whole entry): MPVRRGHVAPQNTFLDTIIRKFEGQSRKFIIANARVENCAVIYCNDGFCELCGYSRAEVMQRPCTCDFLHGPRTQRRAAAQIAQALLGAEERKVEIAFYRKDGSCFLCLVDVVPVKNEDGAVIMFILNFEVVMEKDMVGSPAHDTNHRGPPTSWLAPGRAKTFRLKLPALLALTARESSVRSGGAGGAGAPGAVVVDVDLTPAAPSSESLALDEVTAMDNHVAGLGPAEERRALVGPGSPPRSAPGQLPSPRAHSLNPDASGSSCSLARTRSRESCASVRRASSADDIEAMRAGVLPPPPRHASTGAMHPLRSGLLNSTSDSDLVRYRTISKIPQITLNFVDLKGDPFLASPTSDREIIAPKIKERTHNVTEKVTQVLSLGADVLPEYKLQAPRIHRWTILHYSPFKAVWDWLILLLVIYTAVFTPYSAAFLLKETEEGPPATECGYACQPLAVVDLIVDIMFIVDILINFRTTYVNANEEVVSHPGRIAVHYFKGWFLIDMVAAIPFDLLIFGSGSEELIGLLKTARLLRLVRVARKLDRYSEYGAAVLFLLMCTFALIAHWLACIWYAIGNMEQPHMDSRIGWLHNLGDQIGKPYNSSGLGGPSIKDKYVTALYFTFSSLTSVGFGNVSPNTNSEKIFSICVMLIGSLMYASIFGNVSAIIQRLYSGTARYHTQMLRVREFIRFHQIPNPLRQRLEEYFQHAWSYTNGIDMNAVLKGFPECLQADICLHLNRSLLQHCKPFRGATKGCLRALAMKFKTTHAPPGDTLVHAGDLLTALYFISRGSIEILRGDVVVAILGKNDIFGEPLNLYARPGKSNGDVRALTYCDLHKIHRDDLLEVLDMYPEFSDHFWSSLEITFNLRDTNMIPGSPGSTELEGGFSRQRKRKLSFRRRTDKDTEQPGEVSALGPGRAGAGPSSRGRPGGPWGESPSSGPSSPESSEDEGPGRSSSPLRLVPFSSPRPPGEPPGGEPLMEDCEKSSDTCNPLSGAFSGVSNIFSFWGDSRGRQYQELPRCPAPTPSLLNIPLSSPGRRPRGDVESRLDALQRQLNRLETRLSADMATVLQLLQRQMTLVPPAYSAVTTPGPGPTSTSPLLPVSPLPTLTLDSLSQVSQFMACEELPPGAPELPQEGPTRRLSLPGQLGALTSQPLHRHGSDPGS

inhibition [1] [%] | SMILES | other results
6 | CCc1c(C)[nH]c2c1/C(=N/OC(=O)Nc1ccc(C(C)(C)C)cc1)CCC2 | –
90 | CCc1c(C)[nH]c2c1/C(=N/OC(=O)Nc1ccc(OC)cc1)CCC2 | –
57 | Cc1[nH]c2c(c1C)/C(=N/OC(=O)Nc1ccccc1)CCC2 | –
51 | CCc1c(C)[nH]c2c1/C(=N/OC(=O)Nc1ccc(C(C)C)cc1)CCC2 | –
95 | CCc1c(C)[nH]c2c1/C(=N/OC(=O)Nc1ccc(C#N)cc1)CCC2 | –
87 | CCc1[nH]c2c(c1CC)/C(=N/OC(=O)Nc1ccc(Cl)cc1)CCC2 | –
60 | CC(=O)c1ccc(NC(=O)O/N=C2\CCCc3[nH]c(C)c(C)c32)cc1 | –
91 | CCc1c(C)[nH]c2c1/C(=N/OC(=O)Nc1ccc(Cl)cc1)CCC2 | –
85 | CCc1c(C)[nH]c2c1/C(=N/OC(=O)Nc1ccc(C)cc1)CCC2 | –
90 | CCc1c(C)[nH]c2c1/C(=N/OC(=O)Nc1ccc(F)cc1)CCC2 | IC50 [6]: 275 nM
90 | CCc1c(C)[nH]c2c1/C(=N/OC(=O)Nc1ccc(SC)cc1)CCC2 | IC50 [6]: 350 nM
78 | Cc1[nH]c2c(c1C)/C(=N/OC(=O)Nc1ccc(Cl)cc1)CCC2 | –
91 | CCc1c(C)[nH]c2c1/C(=N/OC(=O)Nc1ccc(C(C)=O)cc1)CCC2 | –

The remaining lines, values behind:

SMILES | inhibition [1] [%] | other results
CCc1c2c(n(C)c1CC)CCC/C2=N\OC(=O)Nc1ccccc1 | 99 | IC50 [2]: > 30 µM; Ratio (Homo sapiens [3]): > 450; Ratio (Homo sapiens [4]): > 450; IC50 [5]: 20 µM; IC50 [6]: 21 nM
CCc1c2c(n(C)c1C)CCC/C2=N\OC(=O)Nc1ccc(C(C)=O)cc1 | 96 | IC50 [6]: 368 nM
CCc1c(C)[nH]c2c1/C(=N/OC(=O)Nc1ccccc1)CCC2 | 91 | IC50 [2]: > 30 µM; Ratio (Homo sapiens [3]): > 450; Ratio (Homo sapiens [4]): > 450; IC50 [5]: > 30 µM; IC50 [6]: 67 nM
CCc1c2c(n(C)c1CC)CCC/C2=N\OC(=O)Nc1ccc(C(C)=O)cc1 | 92 | –
CCc1c2c(n(CC)c1C)CCC/C2=N\OC(=O)Nc1ccccc1 | 35 | –
CCc1c(C)[nH]c2c1/C(=N/OC(=O)Nc1cccc(SC)c1)CCC2 | 73 | –
O=C(Nc1ccccc1)O/N=C1\CCCC2=C1C1CCCC1N2 (stereo unspecified) | 79 | –
CCc1c(C)[nH]c2c1/C(=N/OC(=O)Nc1ccccc1SC)CCC2 | 41 | –
CCc1[nH]c2c(c1CC)/C(=N/OC(=O)Nc1ccccc1)CCC2 | 84 | –
CCc1c(C)[nH]c2c1/C(=N/OC(=O)NCc1ccccc1)CCC2 | 70 | –
CC(=O)c1ccc(NC(=O)O/N=C2\CCCC3=C2C2CCCC2N3)cc1 (stereo unspecified) | 79 | –
CC(=O)c1ccc(NC(=O)O/N=C2\CCCc3c2c(C(C)C)c(C)n3C)cc1 | 96 | –
CCc1c(C)[nH]c2c1/C(=N/OC(=O)NCCc1cccnc1)CCC2 | 25 | –
CCc1c(C)[nH]c2c1/C(=N/OC(=O)NCCc1ccccn1)CCC2 | 91 | IC50 [6]: 547 nM
O=C(Nc1ccc(Cl)cc1)O/N=C1\CCCC2=C1C1CCCC1N2 (stereo unspecified) | 58 | –
CCc1c2c(n(C)c1C)CCC/C2=N\OC(=O)Nc1ccccc1 | 77 | –
CCc1c2c(n(CC)c1C)CCC/C2=N\OC(=O)Nc1ccc(C(C)=O)cc1 | 71 | –
CCc1c(C)[nH]c2c1/C(=N/OC(=O)NCCc1ccncc1)CCC2 | 20 | –
CCc1c(C)[nH]c2c1/C(=N/OC(=O)NCCc1ccccc1)CCC2 | 76 | –
